From patent US10760110B2, “Antibiotic testing and screening system” (priority 2017, dated 2020)
Where two headings read alike, the source gives them in different places.

Assays:
[1] = system: K. pneumoniae NVT1001 gyrA/parC and gyrA/parC/ramR mutants and revertants; assay: Etest MIC of quinolones, gyrA/parC and gyrA/parC/ramR mutants and their revertants (Table 11); assay type: cell-based; details: Klebsiella pneumoniae
Text: The allelic-exchange method was used to restore the wild-type gene in the K. pneumoniae NVT1001 mutants with constructed chromosome-mediated resistance mechanisms, as described by Tsai et al.^19 Briefly, a DNA fragment of the entire wild-type gene sequence along with flanking regions was amplified from K. pneumoniae NVT1001 using PCR with specific primers. The resulting PCR fragment was digested and then cloned into pUT-KB. For homologous recombination, this plasmid was transformed into E. coli S17-1 λpir^23 via electroporation and mobilized into the K. pneumoniae NVT1001 mutant via conjugation. […] After incubation in 20 mL BHI broth for 6 hours at 37° C. in the absence of kanamycin, the fully grown cultures were spread onto LB agar plates supplemented with 10% sucrose. After the double crossover occurred, the sucrose-resistant and kanamycin-susceptible colonies were selected, and the restoration of the wild-type gene was confirmed via DNA sequencing.
(§1) The MICs of antibiotics were determined using the Etest (Biodisk AB, Sweden) according to the manufacturer's instructions. The MICs from the Etest, which fall between standard two-fold dilutions, were rounded up to the next highest two-fold value. The MICs of ceftazidime and cefotaxime against K. pneumoniae NVT1001 harbouring the pACYC177 plasmid with blaOXA-48 were further determined using a broth microdilution test according to the recommendations of the CLSI,^25 and the results were interpreted according to the breakpoints established by the CLSI in 2017.^25 Meanwhile, due to the lack of CLSI breakpoints in 2016 and 2017, the results for cephalothin were interpreted according to the breakpoints established by the CLSI in 2015,^26 and the results for moxifloxacin were interpreted according to the breakpoints established by the EUCAST in 2017.^27

[2] = system: K. pneumoniae NVT1001 strains with QnrB, QnrS or AAC(6′)-Ib-cr plasmids; assay: Etest MIC of quinolones, GyrA/ParC mutations, ΔramR and/or QnrB, QnrS or AAC(6′)-Ib-cr (Table 12); assay type: cell-based; details: Klebsiella pneumoniae
Experimental: DNA fragments of the resistance genes along with their flanking regions were amplified from clinical plasmids via PCR with specific primer pairs. The resulting PCR fragments were digested and then cloned into the plasmid pACYC177 or pACYC184. The resulting plasmids were then transformed into K. pneumoniae strain NVT1001 via electroporation. The recombinant bacteria were plated onto LB agar plates containing kanamycin (50 mg/L) or chloramphenicol (50 mg/L), and the presence of the cloned gene was confirmed via PCR and DNA sequencing.
as §1

[3] = S83F/D87N/S80I::F83S/N87D/I80S revertant, read-out: MIC
[4] = S83F/D87N/S80I::I80S revertant, read-out: MIC
[5] = S83F/D87N/S80I::N87D revertant, read-out: MIC
[6] = S83F/D87N/S80I::N87D/I80S revertant, read-out: MIC
[7] = S83I/D87N/S80I::I80S revertant, read-out: MIC
[8] = S83I/D87N/S80I::I83S/N87D/I80S revertant, read-out: MIC
[9] = S83I/D87N/S80I::N87D revertant, read-out: MIC
[10] = S83I/D87N/S80I::N87D/I80S revertant, read-out: MIC
[11] = S83L/D87N/S80I::I80S revertant, read-out: MIC
[12] = S83L/D87N/S80I::L83S/N87D/I80S revertant, read-out: MIC
[13] = S83L/D87N/S80I::N87D revertant, read-out: MIC
[14] = S83L/D87N/S80I::N87D/I80S revertant, read-out: MIC
[15] = S83Y/D87N/S80I::I80S revertant, read-out: MIC
[16] = S83Y/D87N/S80I::N87D revertant, read-out: MIC
[17] = S83Y/D87N/S80I::N87D/I80S revertant, read-out: MIC
[18] = S83Y/D87N/S80I::Y83S/N87D/I80S revertant, read-out: MIC
[19] = ΔramR/S83I/D87N/S80I:: ramR/I83S revertant
[20] = ΔramR/S83I/D87N/S80I:: ramR/I83S/I80S revertant
[21] = ΔramR/S83I/D87N/S80I:: ramR/I83S/N87D revertant
[22] = ΔramR/S83I/D87N/S80I::I83S/N87D/I80S revertant
[23] = ΔramR/S83I/D87N/S80I::N87D revertant
[24] = ΔramR/S83I/D87N/S80I::N87D/I80S revertant
[25] = ΔramR/S83I/D87N/S80I::ramR/I83S/N87D/I80S
[26] = AAC(6′)-Ib-cr on pACYC177, S83I mutant
[27] = AAC(6′)-Ib-cr on pACYC177, S83I/D87N/S80I mutant
[28] = AAC(6′)-Ib-cr on pACYC177, S83I/S80I mutant
[29] = AAC(6′)-Ib-cr on pACYC177, WT (NVT1001), read-out: MIC
[30] = AAC(6′)-Ib-cr on pACYC177, ΔramR mutant
[31] = AAC(6′)-Ib-cr on pACYC177, ΔramR/S83I mutant
[32] = AAC(6′)-Ib-cr on pACYC177, ΔramR/S83I/D87N/S80I mutant
[33] = AAC(6′)-Ib-cr on pACYC177, ΔramR/S83I/S80I mutant
[34] = QnrB on pACYC177, S83I/D87N/S80I mutant
[35] = QnrB on pACYC177, S83I/S80I mutant
[36] = QnrB on pACYC177, WT (NVT1001), read-out: MIC
[37] = QnrB on pACYC177, ΔramR/S83I mutant
[38] = QnrB on pACYC177, ΔramR/S83I/D87N/S80I mutant
[39] = QnrB on pACYC177, ΔramR/S83I/S80I mutant
[40] = QnrS on pACYC177, S83I/D87N/S80I mutant
[41] = QnrS on pACYC177, S83I/S80I mutant
[42] = QnrS on pACYC177, WT (NVT1001), read-out: MIC
[43] = QnrS on pACYC177, ΔramR/S83I mutant
[44] = QnrS on pACYC177, ΔramR/S83I/D87N/S80I mutant
[45] = QnrS on pACYC177, ΔramR/S83I/S80I mutant
[46] = no supplemental plasmid, S83I mutant
[47] = no supplemental plasmid, S83I/D87N/S80I mutant
[48] = no supplemental plasmid, S83I/S80I mutant
[49] = no supplemental plasmid, WT (NVT1001), read-out: MIC
[50] = no supplemental plasmid, ΔramR mutant
[51] = no supplemental plasmid, ΔramR/S83I mutant
[52] = no supplemental plasmid, ΔramR/S83I/D87N/S80I mutant
[53] = no supplemental plasmid, ΔramR/S83I/S80I mutant

Measured: MIC

COc1c(N2C[C@@H]3CCCN[C@@H]3C2)c(F)cc2c(=O)c(C(=O)O)cn(C3CC3)c12 [Moxifloxacin, moxifloxacin]
4 µg/mL: [1]; [9]
2 µg/mL: [2]; [36]
32 µg/mL: [1]; S83F/D87N/S80I mutant | [1]; S83L/D87N/S80I mutant | [1]; S83Y/D87N/S80I mutant
0.5 µg/mL: [1]; [5] | [1]; [6] | [1]; [14] | [1]; [15] | [1]; [16] | [1]; [17] | [1]; [20]
> 32 µg/mL: [1]; S83I/D87N/S80I mutant | [1]; ΔramR/S83I/D87N/S80I mutant | [1]; [23] | [2]; [27] | [2]; [32] | [2]; [33] | [2]; [34] | [2]; [35] | [2]; QnrB on pACYC177, ΔramR mutant | [2]; [37] | [2]; [38] | [2]; [39] | [2]; [40] | [2]; [41] | [2]; QnrS on pACYC177, ΔramR mutant | [2]; [43] | [2]; [44] | [2]; [45] | [2]; [47] | [2]; [52] | [2]; [53]
8 µg/mL: [1]; [24] | [2]; [28] | [2]; QnrB on pACYC177, S83I mutant | [2]; QnrS on pACYC177, S83I mutant | [2]; [48] | [2]; [51]
16 µg/mL: [2]; [31]
0.125 µg/mL: [1]; [3] | [1]; [8] | [1]; [12] | [1]; [18] | [1]; [25] | [2]; [29] | [2]; [49]
1 µg/mL: [1]; [4] | [1]; [7] | [1]; [10] | [1]; [11] | [1]; [13] | [1]; [19] | [1]; [22] | [2]; [26] | [2]; [30] | [2]; [42] | [2]; [46] | [2]; [50]
0.25 µg/mL: [1]; [21]

C[C@H]1COc2c(N3CCN(C)CC3)c(F)cc3c(=O)c(C(=O)O)cn1c23 [Levofloxacin, levofloxacin]
32 µg/mL: [2]; [41]
0.06 µg/mL: [1]; [3] | [1]; [8] | [1]; [12] | [1]; [18] | [1]; [21] | [1]; [25] | [2]; [29] | [2]; [49]
16 µg/mL: [2]; [35] | [2]; [51]
0.5 µg/mL: [1]; [4] | [1]; [6] | [1]; [15] | [1]; [17] | [1]; [19] | [1]; [20] | [2]; [26] | [2]; [46]
2 µg/mL: [1]; [13] | [2]; [28] | [2]; QnrB on pACYC177, S83I mutant | [2]; [48]
> 32 µg/mL: [1]; ΔramR/S83I/D87N/S80I mutant | [1]; [23] | [2]; [32] | [2]; [33] | [2]; [34] | [2]; [37] | [2]; [38] | [2]; [39] | [2]; [40] | [2]; [43] | [2]; [44] | [2]; [45] | [2]; [52] | [2]; [53]
8 µg/mL: [1]; S83F/D87N/S80I mutant | [1]; S83I/D87N/S80I mutant | [1]; S83L/D87N/S80I mutant | [1]; [24] | [2]; [27] | [2]; [31] | [2]; QnrB on pACYC177, ΔramR mutant | [2]; QnrS on pACYC177, ΔramR mutant | [2]; [47]
1 µg/mL: [1]; [5] | [1]; [7] | [1]; [10] | [1]; [11] | [1]; [14] | [1]; [16] | [1]; [22] | [2]; [30] | [2]; [36] | [2]; [42] | [2]; [50]
4 µg/mL: [1]; [9] | [1]; S83Y/D87N/S80I mutant | [2]; QnrS on pACYC177, S83I mutant
